Laboratory results taken from patent US20070128217A1 (priority 2003, published 2007).

Key:
[1] = tested on: antibodies in sera from SARS patients (sera 1a, 1b, 2, 6, 37, 62, London, SARS-yellow, SARS-green); type: binding, human; parameters: Binding of serum 6 to linear peptides of protein X1 of SARS-CoV Urbani / Binding of serum 37 to linear peptides of protein X1 of SARS-CoV Urbani / Binding of serum 6 to looped/cyclic peptide (PEPSCAN-ELISA) / Binding of serum 37 to looped/cyclic peptide (PEPSCAN-ELISA) / Binding of serum 37 to looped/cyclic peptides of protein X1 of SARS-CoV Urbani / Binding of serum 6 to linear peptides of protein X2 / Binding of serum 37 to linear peptides of protein X2 / Binding of serum 37 to looped/cyclic peptides of protein X2 of SARS-CoV Urbani / Binding of serum 6 to linear peptides of protein M of SARS-CoV Urbani / Binding of serum 37 to linear peptides of protein M of SARS-CoV Urbani / Binding of serum 6 to looped/cyclic peptides of protein M of SARS-CoV Urbani / Binding of serum 37 to looped/cyclic peptides of protein M of SARS-CoV Urbani / Binding of serum 6 to linear peptides of protein X3 of SARS-CoV Urbani / Binding of serum 37 to linear peptides of protein X3 of SARS-CoV Urbani / Binding of serum 37 to looped/cyclic peptides of protein X3 of SARS-CoV Urbani / Binding of serum 6 to linear peptides of protein X4 of SARS-CoV Urbani / Binding of serum 37 to linear peptides of protein X4 of SARS-CoV Urbani / Binding of serum 37 to looped/cyclic peptides of protein X4 of SARS-CoV Urbani / Binding of serum 6 to linear peptides of protein X5 of SARS-CoV Urbani / Binding of serum 37 to linear peptides of protein X5 of SARS-CoV Urbani / Binding of serum 37 to looped/cyclic peptides of protein X5 of SARS-CoV Urbani / Binding of serum 6 to linear peptides of protein N of SARS-CoV Urbani / Binding of serum 37 to linear peptides of protein N of SARS-CoV Urbani / Binding of serum 6 to linear peptide (PEPSCAN-ELISA) / Binding of serum 1a to looped/cyclic peptides of protein N of SARS-CoV Urbani / Binding of serum 1b to looped/cyclic peptides of protein N of SARS-CoV Urbani / Binding of serum 2 to looped/cyclic peptides of protein N of SARS-CoV Urbani / Binding of serum 6 to looped/cyclic peptides of protein N of SARS-CoV Urbani / Binding of serum 37 to looped/cyclic peptides of protein N of SARS-CoV Urbani / Binding of serum 62 to looped/cyclic peptides of protein N of SARS-CoV Urbani / Binding of serum London to looped/cyclic peptides of protein N of SARS-CoV Urbani / Binding of serum SARS-green to looped/cyclic peptides of protein N of SARS-CoV Urbani: unit not given here
[2] = tested on: control sera (pooled serum of ten healthy LUMC hospital workers; commercial negative donor pooled serum from the Dutch bloodbank); type: binding, human; parameters: Binding of Control serum LUMC to linear peptides / Binding of Control serum Blood-bank to linear peptides / Binding of Control serum LUMC to looped peptides / Binding of Control Serum Blood-Bank to Looped peptides / Binding of Control serum LUMC to linear peptides of the protein M of SARS-CoV Urbani / Binding of Control serum Blood-bank to linear peptides of the protein M of SARS-CoV Urbani / Binding of Control serum LUMC to looped peptides of the protein M of SARS-CoV Urbani / Binding of Control Serum Blood-Bank to Looped peptides of the protein M of SARS-CoV Urbani: unit not given here
[3] = tested on: rabbit serum obtained by immunizing a rabbit with the SARS-CoV strain Frankfurt 1; type: binding; parameters: Binding of a rabbit serum to linear peptides / Binding of a rabbit serum to looped peptides / Rabbit serum linear peptides / Rabbit serum looped peptides / Binding of a rabbit serum to linear peptides of protein N of SARS-CoV Urbani (Rabbit serum linear peptides) / Binding of a rabbit serum to looped/cyclic peptides of protein N of SARS-CoV Urbani (Rabbit serum looped peptides): unit not given here
[4] = tested on: recombinant human anti-SARS-CoV antibody 03-018; type: binding; parameters: Binding of antibody 03-018 to linear peptides of the N protein of SARS-CoV Urbani / Binding of antibody 03-018 to looped/cyclic peptides of the N protein of SARS-CoV Urbani: unit not given here

| Sequence | Binding of serum 1a to looped/cyclic peptides of protein N of SARS-CoV Urbani [1] | Binding of serum 1b to looped/cyclic peptides of protein N of SARS-CoV Urbani [1] | Binding of serum 2 to looped/cyclic peptides of protein N of SARS-CoV Urbani [1] | Binding of serum 6 to looped/cyclic peptides of protein N of SARS-CoV Urbani [1] | Binding of serum 37 to looped/cyclic peptides of protein N of SARS-CoV Urbani [1] | Binding of serum 62 to looped/cyclic peptides of protein N of SARS-CoV Urbani [1] | Binding of serum London to looped/cyclic peptides of protein N of SARS-CoV Urbani [1] | Binding of serum SARS-green to looped/cyclic peptides of protein N of SARS-CoV Urbani [1] | Binding of serum SARS-yellow to looped/cyclic peptides of protein N of SARS-CoV Urbani [1] | Binding of a rabbit serum to linear peptides of protein N of SARS-CoV Urbani (Rabbit serum linear peptides) [3] | Binding of a rabbit serum to looped/cyclic peptides of protein N of SARS-CoV Urbani (Rabbit serum looped peptides) [3] | Binding of antibody 03-018 to linear peptides of the N protein of SARS-CoV Urbani [4] | Binding of antibody 03-018 to looped/cyclic peptides of the N protein of SARS-CoV Urbani [4] | Binding of serum 1a to linear peptides of protein N of SARS-CoV Urbani [1] | Binding of serum 1b to linear peptides of protein N of SARS-CoV Urbani [1] | Binding of serum 2 to linear peptides of protein N of SARS-CoV Urbani [1] | Binding of serum 6 to linear peptides of protein N of SARS-CoV Urbani [1] | Binding of serum 37 to linear peptides of protein N of SARS-CoV Urbani [1] | Binding of serum 62 to linear peptides of protein N of SARS-CoV Urbani [1] | Binding of serum London to linear peptides of protein N of SARS-CoV Urbani [1] | other results |
| --- | --- | --- | --- | --- | --- | --- | --- | --- | --- | --- | --- | --- | --- | --- | --- | --- | --- | --- | --- | --- | --- |
| GGGETALALLLLDRL | 0.4 | 0.3 | 0.5 | 0.2 | 0.8 | 0.7 | 0.4 | 0.3 | 0.7 | 0.1 | 0.7 | 0.1 | 0.2 | – | – | – | – | – | – | – | Binding of serum 1a to linear peptide (PEPSCAN-ELISA) [1]: 0.2; Binding of serum 1b to linear peptide (PEPSCAN-ELISA) [1]: 0.1; Binding of serum 2 to linear peptide (PEPSCAN-ELISA) [1]: 0.1; Binding of serum 6 to linear peptide (PEPSCAN-ELISA) [1]: 0.1; Binding of serum 37 to linear peptide (PEPSCAN-ELISA) [1]: 0.7; Binding of serum 62 to linear peptide (PEPSCAN-ELISA) [1]: 0.5; Binding of serum London to linear peptide (PEPSCAN-ELISA) [1]: 0.4; Binding of serum SARS-green to linear peptide (PEPSCAN-ELISA) [1]: 0.2; Binding of serum SARS-yellow to linear peptide (PEPSCAN-ELISA) [1]: 0.6; Binding of Control Serum Blood-Bank to Looped peptides [2]: 0.7; Binding of Control serum Blood-bank to linear peptides [2]: 0.5; Binding of Control serum LUMC to linear peptides [2]: 0.6; Binding of Control serum LUMC to looped peptides [2]: 0.8 |
| QPTVTLLPAADMDDF | 0.3 | 0.2 | 0.2 | 0.1 | 0.5 | 0.3 | 0.2 | 0.4 | 0.4 | 0.1 | 0.0 | 0.1 | 0.2 | 0.3 | 0.2 | 0.2 | 0.2 | 1.1 | 0.7 | 0.5 | Binding of serum SARS-green to linear peptides of protein N of SARS-CoV Urbani [1]: 1.9; Binding of serum SARS-yellow to linear peptides of protein N of SARS-CoV Urbani [1]: 0.7; Control Serum Blood-Bank Looped peptides [2]: 0.5; Control serum Blood-bank linear peptides [2]: 0.7; Control serum LUMC linear peptides [2]: 0.5; Control serum LUMC looped peptides [2]: 0.5 |
| PKKDKKKKTDEAQPL | 0.2 | 0.1 | 0.2 | 0.1 | 0.4 | 0.3 | 0.3 | 0.1 | 0.2 | 0.1 | 0.0 | 0.1 | 0.2 | 0.2 | 0.1 | 2.5 | 0.2 | 0.7 | 0.7 | 0.5 | Binding of serum SARS-green to linear peptides of protein N of SARS-CoV Urbani [1]: 0.1; Binding of serum SARS-yellow to linear peptides of protein N of SARS-CoV Urbani [1]: 0.5; Control Serum Blood-Bank Looped peptides [2]: 0.4; Control serum Blood-bank linear peptides [2]: 0.8; Control serum LUMC linear peptides [2]: 0.8; Control serum LUMC looped peptides [2]: 0.3 |
| DSTDNNQNGGRNGAR | 0.4 | 0.3 | 0.5 | 0.3 | 0.7 | 0.4 | 0.5 | 0.8 | 0.5 | 0.1 | 0.5 | 0.2 | 0.3 | 0.2 | 0.1 | 0.2 | 0.2 | 1.0 | 0.8 | 0.5 | Binding of serum SARS-green to linear peptides of protein N of SARS-CoV Urbani [1]: 0.5; Binding of serum SARS-yellow to linear peptides of protein N of SARS-CoV Urbani [1]: 0.5; Binding of Control Serum Blood-Bank to Looped peptides [2]: 0.6; Binding of Control serum Blood-bank to linear peptides [2]: 0.8; Binding of Control serum LUMC to linear peptides [2]: 0.7; Binding of Control serum LUMC to looped peptides [2]: 0.7 |
